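Exposure lasted 48 hours, with cells grown in 96-well plates and compounds tested at five concentrations. The concentration for 50% growth inhibition is given as GI50. The concentration for full growth arrest is given as TGI.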
Key:
Experiment in all cases: growth of human tumour cells (NCI), 48 h
U251 CNS = tested on: U251 CNS
M14 melanoma = tested on: M14 melanoma
OVCAR-4 ovarian = tested on: OVCAR-4 ovarian
A498 renal = tested on: A498 renal
NCI-H460 lung = tested on: NCI-H460 lung
MOLT-4 leukemia = tested on: MOLT-4 leukemia
SF-268 CNS = tested on: SF-268 CNS
HS 578T breast = tested on: HS 578T breast
UACC-257 melanoma = tested on: UACC-257 melanoma
BT-549 breast = tested on: BT-549 breast
MDA-MB-468 breast = tested on: MDA-MB-468 breast
OVCAR-5 ovarian = tested on: OVCAR-5 ovarian
OVCAR-8 ovarian = tested on: OVCAR-8 ovarian
HOP-92 NSCLC = tested on: HOP-92 NSCLC
ACHN renal = tested on: ACHN renal
HL-60(TB) leukemia = tested on: HL-60(TB) leukemia
SNB-19 CNS = tested on: SNB-19 CNS
IGROV1 ovarian = tested on: IGROV1 ovarian
RXF 393 renal = tested on: RXF 393 renal
SW-620 colon = tested on: SW-620 colon
MCF7 breast = tested on: MCF7 breast
MDA-MB-435 = tested on: MDA-MB-435
SR leukemia = tested on: SR leukemia
SK-MEL-28 melanoma = tested on: SK-MEL-28 melanoma
SK-MEL-2 melanoma = tested on: SK-MEL-2 melanoma
T-47D breast = tested on: T-47D breast
MALME-3M melanoma = tested on: MALME-3M melanoma
MDA-MB-231 breast = tested on: MDA-MB-231 breast
HT29 colon = tested on: HT29 colon
786-0 renal = tested on: 786-0 renal

O=C(NO)c1ccc(Cn2ccc3c(Nc4ccccc4)ncnc32)cc1
GI50 (U251 CNS): 2.78 µM
TGI (U251 CNS): 15.8 µM
GI50 (M14 melanoma): 2.99 µM
TGI (M14 melanoma): 10.1 µM
GI50 (OVCAR-4 ovarian): 5.79 µM
TGI (OVCAR-4 ovarian): > 29 µM
GI50 (A498 renal): 1.31 µM
TGI (A498 renal): 6.79 µM
GI50 (NCI-H460 lung): 1.33 µM
TGI (NCI-H460 lung): 8.45 µM
GI50 (MOLT-4 leukemia): 0.93 µM
TGI (MOLT-4 leukemia): 7.6 µM
GI50 (SF-268 CNS): 4.06 µM
TGI (SF-268 CNS): 9.64 µM
GI50 (HS 578T breast): 1.7 µM
TGI (HS 578T breast): 17.5 µM
GI50 (UACC-257 melanoma): 2.3 µM
TGI (UACC-257 melanoma): 9.79 µM
GI50 (BT-549 breast): 7.71 µM
TGI (BT-549 breast): 15.4 µM
GI50 (MDA-MB-468 breast): 0.718 µM
TGI (MDA-MB-468 breast): 2.76 µM
GI50 (OVCAR-5 ovarian): 1.02 µM
TGI (OVCAR-5 ovarian): 5.07 µM
GI50 (OVCAR-8 ovarian): 1.29 µM
TGI (OVCAR-8 ovarian): 8.8 µM
GI50 (HOP-92 NSCLC): 1.74 µM
TGI (HOP-92 NSCLC): 7.35 µM
GI50 (ACHN renal): 1.95 µM
TGI (ACHN renal): 5.92 µM
GI50 (HL-60(TB) leukemia): 0.984 µM
TGI (HL-60(TB) leukemia): 3.89 µM
GI50 (SNB-19 CNS): 3.26 µM
TGI (SNB-19 CNS): 7.51 µM
GI50 (IGROV1 ovarian): 2.34 µM
TGI (IGROV1 ovarian): 6.22 µM
GI50 (RXF 393 renal): 0.934 µM
TGI (RXF 393 renal): 4.02 µM
GI50 (SW-620 colon): 0.863 µM
TGI (SW-620 colon): 3.31 µM
GI50 (MCF7 breast): 3.8 µM
TGI (MCF7 breast): 12.4 µM
GI50 (MDA-MB-435): 1.22 µM
TGI (MDA-MB-435): 5.03 µM
GI50 (SR leukemia): 0.817 µM
TGI (SR leukemia): > 29 µM
GI50 (SK-MEL-28 melanoma): 2.04 µM
TGI (SK-MEL-28 melanoma): 6.29 µM
GI50 (SK-MEL-2 melanoma): 4.75 µM
TGI (SK-MEL-2 melanoma): 11.4 µM
GI50 (T-47D breast): 2.42 µM
TGI (T-47D breast): > 29 µM
GI50 (MALME-3M melanoma): 0.869 µM
TGI (MALME-3M melanoma): 4.1 µM
GI50 (MDA-MB-231 breast): 1.94 µM
TGI (MDA-MB-231 breast): 6.68 µM
GI50 (HT29 colon): 1.43 µM
TGI (HT29 colon): 14.1 µM
GI50 (786-0 renal): 3.78 µM

— PubChem BioAssay (NCI)
